# Measurements reported in PMC12154549, “Structure-based design of an aromatic helical foldamer–protein interface” (Chemical Science, 2025).
# Read-outs that look alike come from different tables or passages of the source.
# Tests used:
# HCAII [1] = target: T1, HCAII (Homo sapiens, UniProt P00918); design: method as in PMID 30395443; conditions: HCAII immobilized; 2:98 DMSO/PBS pH 7.4, 25 °C; ref 8a; read-out: KD by SPR; cited from earlier work
# T1 construct: made in house
# HCAII [2] = target: T1, HCAII; test: Fluorescence competition assay: HCAII titrated into foldamer or ligand plus probe 23; conditions: [competing species] = [23] = 50 nM; 50 mM HEPES pH 7.2; 1:1 binding isotherm, 380-600 nm; repeatable within ±15%
# From the text: We turned to a recently published assay that exploits the quenching of the fluorescence of nanomolar ligand 23 upon binding to HCAII (Fig. 8a).[32] The low KD value of 23 makes it suitable to perform competition (displacement) assays with compounds binding in the same concentration range. However, some optimization of the assay was required to perform experiments with foldamer-containing ligands because the foldamers absorb both at the excitation (373 nm) and emission (400–450 nm) wavelengths of 23. Performing classical direct displacement titrations where a foldamer is added to a solution containing 23 and HCAII would be complicated by variable inner filter effects. […] For fluorescence measurements: 50 mM HEPES (4-(2-hydroxyethyl)-1-piperazineethanesulfonic acid) at pH 7.2. […] It appears that the fluorescence drops upon adding HCAII, i.e. that ligand 23 binds to HCAII, in presence of the foldamer faster than predicted by the binding model. A better fit can be artificially obtained by inputting HCAII concentrations 20% larger than those measured or foldamer concentrations 20% lower than those measured in the curve fitting program. […]
# 4.2 Fluorescence binding assay […]
# 2. To the solution of 23 (50 nM) in HEPES buffer (50 mM, pH 7.2) in the fluorescence cuvette (2 mL), incremental volumes of a stock solution of HCAII (11 µM) in HEPES buffer were added. […]
# HCAII [3] = target: T1, HCAII; test: Direct fluorescence titration of probe 23 with HCAII; format: binding; conditions: 23 50 nM, 50 mM HEPES pH 7.2, RT, 1:1 model; read-out: KD of 23·HCAII complex
# Description: 4.2 Fluorescence binding assay
# This fluorescence assay was adapted from the paper of Anzenbacher.18 All fluorescence titrations were done in aqueous 50 mM HEPES buffer (pH = 7.2) at room temperature , without degassing of the samples and using a qua rtz fluorescence cuvette with 1 cm path length on Varian Cary Eclipse Spectrophotometer 05813. The titration assays were carried out in two parts: 1) sensor - protein titration (Figure S21); 2) sensor-foldamer competition assay (Figure S24). Several experiments were repeated and validated a reproducibility within 15% error.
# Figure S21. Schematic procedure of the titration experiment between indicator 23 and HCAII (adapted from literature18).
# 4.2.1 KD measurement of the 23•HCAII complex
# 1. […]
# 2. To the solution of 23 (50 nM) in HEPES buffer (50 mM, pH 7.2) in the fluorescence cuvette (2 mL), incremental volumes of a stock solution of HCAII (11 µM) in HEPES buffer were added.
# After each addition and gentle agitation, the resulting mixture was incubated for 5 min at RT. The intensity of fluorescence (IF) was then recorded from 380 nm to 600 nm (λex = 373 nm).   […]
# software.19 For curve fitting, the binding model was set to 1:1. The spectra of all emitting species were recorded from 380 nm to 600 nm (λex = 373 nm) in separate experiments and set as “unknown spectrum”. The KD value was determined considering all the wavelengths recorded. […]
Kd (HCAII [2]) [nM],Kd (HCAII [3]) [nM],Compound,Kd (HCAII [1]) [nM]
10,,NCCCCOc1cccc(CNC(=O)c2ccc(S(N)(=O)=O)cc2)c1 [ligand 22],5
,1.69,COc1ccc2cc(C(=O)Nc3nnc(S(N)(=O)=O)s3)c(=O)oc2c1 [probe 23],
